Results on three compounds are retold here after patent publication US11919865B2, “Processes for preparing AG-10, its intermediates, and salts thereof” (EIDOS THERAPEUTICS, INC., priority 2017, dated 2024).

Several values for one entry are separate records, joined by “and”; a condition that tells them apart may be missing. Identical values can stand only once.

Series [1] is described as follows: Bioavailability of AG-10, mean plasma concentration after intravenous and oral dosing. The series is classed as in vivo. Conditions: 1 mg/kg intravenously and 5 mg/kg orally, plasma 0-24 hours. How it is done:
The mean plasma concentration of AG-10 was measured from 0-24 hours after dosing with 1 mg/kg of AG-10 intravenously and 5 mg/kg of AG-10 orally. The calculated pharmacokinetic data is shown in FIG. 2B, FIG. 2D, and FIG. 2F.

Series [2] can be described thus: Bioavailability of AG-10 in male and female dogs at different oral dosing levels. In kind it is in vivo. Conditions: oral 5 mg/kg or 20 mg/kg, plasma 2-24 hours. How it is done:
The mean plasma concentration of AG-10 was measured from 2-24 hours after oral dosing with 5 mg/kg or 20 mg/kg of AG-10. The calculated pharmacokinetic data is shown in FIG. 3B, FIG. 3D and FIG. 3F.

The nature of series [3]: Oral dosing of AG-10 forms, plasma pharmacokinetics by LC-MS/MS. In kind it is in vivo, Rat. How it is done:
(§1) Rats or Dogs were orally dosed with the zwitterion, Na salt, or HCl salt for of AG-10. Plasma samples from each rat/dog, as applicable, were measured between 0 and up to 96 hours after dosing with the specified form of AG-10. After isolation from the animal, each sample (50 μL) was protein precipitated by adding 500 μL 0.1% formamide in acetonitrile to the sample. After addition for the formamide solution, the sample was vortexed and centrifuging at 1400 rpm for 15 min at 4° C. 100 μL of the supernatant was removed and diluted with 100 μL water. 5 μL of the diluted sample was injected for LC-MS/MS analysis.

Series [4] can be described thus: Intravenous dosing of AG-10 forms, plasma pharmacokinetics by LC-MS/MS. In kind it is in vivo. The method, then: as §1, with “Mice, Rats” for “Rats”, “were intravenously” for “were orally”, “each mouse/rat/dog,” for “each rat/dog,”, “and 24” for “and up to 96”, “diluted samples” for “diluted sample”
Test in series [5]: as above
The following applies: in vivo, dog, 1 mg/kg, the Cmax reported is an extrapolated C0. The method, then: as §1, with “Mice, Rats” for “Rats”, “were intravenously” for “were orally”, “each mouse/rat/dog,” for “each rat/dog,”, “and 24” for “and up to 96”, “diluted samples” for “diluted sample”

Series [6] can be described thus: Oral dosing of AG-10 forms, plasma pharmacokinetics by LC-MS/MS. The series is classed as in vivo, Dog. Conditions: for Exposure (0-24 h) / Cmax: dog. How it is done: as §1

In the case of `Cc1n[nH]c(C)c1CCCOc1cc(C(=O)O)ccc1F` [AG-10, 3-(3-(3,5-dimethyl-1H-pyrazol-4-yl)propoxy)-4-fluorobenzoic acid], the Bioavailability result in series [1] (dogs), in series [1] (mice), in series [1] (rats) and in series [2] was “high bioavailability” throughout.
Regarding `Cc1n[nH]c(C)c1CCCOc1cc(C(=O)O)ccc1F.Cl` [HCl salt, 3-[3-(3,5-dimethyl-1H-pyrazol-4-yl)propoxy]-4-fluorobenzoic acid hydrochloride salt], the maximum concentration (Cmax) – broadly, the peak of the concentration-time curve – in series [3] (in vivo, rat, 200 mg/kg) was 216000 ng/mL and 741 µM; in series [4] (in vivo, rat, 1 mg/kg, the Cmax reported is an extrapolated C0, read-out: Cmax (extrapolated C0)), 4280 ng/mL and 14.6 µM; in series [5], 5960 ng/mL and 20.4 µM; in series [6] (in vivo, 20 mg/kg), 16100 ng/mL and 55.1 µM; in series [6] (in vivo, 25 mg/kg) it was 25100 ng/mL and 85.8 µM; in series [6] (in vivo, 60 mg/kg) it was 41800 ng/mL and 143 µM. Further, in series [6] (in vivo, 200 mg/kg), the Cmax was 154000 ng/mL and 528 µM. The “Exposure (0-24 h)” value in series [3] (rat, 200 mg/kg) is 395,503 ng · h/mL; in series [6] (20 mg/kg) it was 69,088 ng · h/mL; in series [6] (25 mg/kg), 128,374 ng · h/mL; in series [6] (60 mg/kg), 155,814 ng · h/mL; in series [6] (200 mg/kg), 1,020,640 ng · h/mL. In series [3] (rats, Table 3 row 3 vs row 1), the “Cmax values as compared to the zwitterion and the Na salt” value is “surprising and significant improvement in Cmax values”. Also, the “Cmax values as compared to the zwitterion” value in series [6] (dogs, Table 3 row 6 vs row 4) was “surprising and significant improvement in Cmax values”.
Consider `Cc1n[nH]c(C)c1CCCOc1cc(C(=O)O)ccc1F` [Zwitterion, 3-(3-(3,5-dimethyl-1H-pyrazol-4-yl)propoxy)-4-fluorobenzoic acid], for which the Cmax in series [3] (plasma, rat, 200 mg/kg) is 26400 ng/mL and 90.3 µM; in series [4] (mouse, 3 mg/kg), 4480 ng/mL and 15.4 µM; in series [4] (plasma, rat, 3.43 mg/kg, read-out: Cmax) it was 3090 ng/mL and 10.6 µM; in series [6] (plasma, 25 mg/kg) it was 17500 ng/mL and 60 µM. Further, the “Exposure (0-24 h)” value in series [6] (25 mg/kg) was 89,786 ng · h/mL.
